Results: patent US20240246964A1 (Arbutus Biopharma Corporation, priority 2021, published 2024)

Target: human PD-L1 (Homo sapiens (Human), UniProt Q9NZQ7)
Experiment: T cell activation luciferase reporter cell culture system (T Cell Activation Assay)
Format: cell-based
Settings: luciferase reporter assay; PD-L1 aAPC/CHO-K1 cells with PD-1 effector Jurkat T cells

Chain of human PD-L1 (Q9NZQ7 19-290): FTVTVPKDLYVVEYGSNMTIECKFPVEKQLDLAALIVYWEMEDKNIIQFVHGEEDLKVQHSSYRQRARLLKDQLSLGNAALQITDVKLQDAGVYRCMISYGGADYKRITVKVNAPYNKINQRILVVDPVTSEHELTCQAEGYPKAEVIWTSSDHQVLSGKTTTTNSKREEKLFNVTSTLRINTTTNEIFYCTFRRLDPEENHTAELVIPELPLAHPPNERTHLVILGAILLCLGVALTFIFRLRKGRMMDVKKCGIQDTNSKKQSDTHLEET

Compound `COc1cc(-c2nccc(-c3cccc(-c4ccc(CN(C)C)c(OC)n4)c3Cl)c2Cl)ccc1CN(C)C` [Cmpd 137, 1-(6-(2-chloro-3-(3-chloro-2-(4-((dimethylamino)methyl)-3-methoxyphenyl)pyridin-4-yl)phenyl)-2-methoxypyridin-3-yl)-N,N-dimethylmethanamine] has an EC50 of 84.3 nM.
`COc1cc(-c2nccc(-c3cccc(-c4ccc(CN(C)CCO)c(OC)n4)c3Cl)c2Cl)ccc1CN(C)CCO` [Cmpd 138, 2-(((6-(2-chloro-3-(3-chloro-2-(4-(((2-hydroxyethyl)(methyl)amino)methyl)-3-methoxyphenyl)pyridin-4-yl)phenyl)-2-methoxypyridin-3-yl)methyl)(methyl)amino)ethan-1-ol] gave an EC50 of 5160 nM.
`COc1cc(-c2nccc(-c3cccc(-c4ccc(CNC5CCN(C(C)=O)CC5)c(OC)n4)c3Cl)c2Cl)ccc1CNC1CCN(C(C)=O)CC1` [Cmpd 139, 1-(4-(((6-(3-(2-(4-(((1-acetylpiperidin-4-yl)amino)methyl)-3-methoxyphenyl)-3-chloropyridin-4-yl)-2-chlorophenyl)-2-methoxypyridin-3-yl)methyl)amino)piperidin-1-yl)ethan-1-one] gave an EC50 of 12.9 nM.
In the case of `COc1cc(-c2nccc(-c3cccc(-c4ccc(CN(C)C5CCN(C(C)=O)CC5)c(OC)n4)c3Cl)c2Cl)ccc1CN(C)C1CCN(C(C)=O)CC1` [Cmpd 140, 1-(4-(((6-(3-(2-(4-(((1-acetylpiperidin-4-yl)(methyl)amino)methyl)-3-methoxyphenyl)-3-chloropyridin-4-yl)-2-chlorophenyl)-2-methoxypyridin-3-yl)methyl)(methyl)amino)piperidin-1-yl)ethan-1-one], the EC50 is reported as ≥ 10000 nM.
`COC(=O)CN1CCc2cc(-c3nccc(-c4cccc(-c5ccc(CNC[C@@H]6CCC(=O)N6)c(OC)n5)c4Cl)c3Cl)cc(OC)c2C1` [Cmpd 150, methyl (S)-2-(6-(3-chloro-4-(2-chloro-3-(6-methoxy-5-((((5-oxopyrrolidin-2-yl)methyl)amino)methyl)pyridin-2-yl)phenyl)pyridin-2-yl)-8-methoxy-3,4-dihydroisoquinolin-2(1H)-yl)acetate] was tested, and the EC50 was 127 nM.
Compound `COc1cc(-c2nccc(-c3cccc(-c4ccc(CNC[C@@H]5CCC(=O)N5)c(OC)n4)c3Cl)c2Cl)cc2c1CN(CC(=O)O)CC2` [Cmpd 151, (S)-2-(6-(3-chloro-4-(2-chloro-3-(6-methoxy-5-((((5-oxopyrrolidin-2-yl)methyl)amino)methyl)pyridin-2-yl)phenyl)pyridin-2-yl)-8-methoxy-3,4-dihydroisoquinolin-2(1H)-yl)acetic acid] has an EC50 of 77.3 nM.
Work on `COc1nc(-c2cccc(-c3ccnc(-c4ccc5c(CNC6CCN(C(C)=O)CC6)cn(C)c5c4)c3Cl)c2Cl)ccc1CNC1CCN(C(C)=O)CC1` [Cmpd 277, 1-(4-(((6-(3-(2-(3-(((1-acetylpiperidin-4-yl)amino)methyl)-1-methyl-1H-indol-6-yl)-3-chloropyridin-4-yl)-2-chlorophenyl)-2-methoxypyridin-3-yl)methyl)amino)piperidin-1-yl)ethan-1-one] yielded an EC50 of 170 nM.
In the case of `COc1cc(-c2nccc(-c3cccc(-c4ccc(CNCCC(=O)O)c(OC)n4)c3Cl)c2Cl)ccc1CNC1CCN(C(C)=O)CC1` [Cmpd 389, 3-(((6-(3-(2-(4-(((1-acetylpiperidin-4-yl)amino)methyl)-3-methoxyphenyl)-3-chloropyridin-4-yl)-2-chlorophenyl)-2-methoxypyridin-3-yl)methyl)amino)propanoic acid], the EC50 is reported as 35.8 nM.
For `COc1cc(-c2nccc(-c3cccc(-c4ccc(CNC5CCN(C(C)=O)CC5)c(OC)n4)c3C#N)c2Cl)ccc1CNC1CCN(C(C)=O)CC1` [Cmpd 615, 2-(2-(4-(((1-acetylpiperidin-4-yl)amino)methyl)-3-methoxyphenyl)-3-chloropyridin-4-yl)-6-(5-(((1-acetylpiperidin-4-yl)amino)methyl)-6-methoxypyridin-2-yl)benzonitrile], the EC50 was 272 nM.
Compound `COc1nc(-c2cccc(-c3ccnc(-c4cc(OC)c5nc(CNC(C)C)nn5c4)c3Cl)c2Cl)ccc1CNC1CCN(C(C)=O)CC1` [Cmpd 644, 1-(4-(((6-(2-chloro-3-(3-chloro-2-(2-((isopropylamino)methyl)-8-methoxy-[1,2,4]triazolo[1,5-a]pyridin-6-yl)pyridin-4-yl)phenyl)-2-methoxypyridin-3-yl)methyl)amino)piperidin-1-yl)ethan-1-one] has an EC50 of 84.8 nM.
In the case of `COc1cc(-c2nccc(-c3ccnc(-c4cc(F)c(CN5CC6(CNC(=O)C6)C5)c(OC)c4)c3Cl)c2Cl)cc(F)c1CN1CC2(CNC(=O)C2)C1` [Compound 323, 2,2′-(((3,3′-Dichloro-[4,4′-bipyridine]-2,2′-diyl)bis(2-fluoro-6-methoxy-4,1-phenylene))bis(methylene))bis(2,6-diazaspiro[3.4]octan-7-one)], the EC50 is reported as 164 nM.
`COc1nc(-c2cncc(-c3cccc(NC(=O)c4cn(C)c(=O)n(C)c4=O)c3Cl)c2Cl)ccc1CNC[C@@H]1CCC(=O)N1` [Compound 712, (S)—N-(2-Chloro-3-(4′-chloro-6-methoxy-5-((((5-oxopyrrolidin-2-yl)methyl)amino)methyl)-[2,3′-bipyridin]-5′-yl)phenyl)-1,3-dimethyl-2,4-dioxo-1,2,3,4-tetrahydropyrimidine-5-carboxamide] gave an EC50 of 89.1 nM.
For `COc1nc(-c2ccnc(-c3cccc(NC(=O)c4cn(C)c(=O)n(C)c4=O)c3Cl)c2Cl)ccc1CNC[C@@H]1CCC(=O)N1` [Compound 718, (S)—N-(2-Chloro-3-(3′-chloro-6-methoxy-5-((((5-oxopyrrolidin-2-yl)methyl)amino)methyl)-[2,4′-bipyridin]-2′-yl)phenyl)-1,3-dimethyl-2,4-dioxo-1,2,3,4-tetrahydropyrimidine-5-carboxamide], the EC50 was 81.5 nM.
`COc1nc(-c2ccnc(-c3cccc(NC(=O)c4cn(C)c(=O)n(C)c4=O)c3Cl)c2Cl)ccc1CN1CC2(CNC(=O)C2)C1` [Compound 719, N-(2-Chloro-3-(3′-chloro-6-methoxy-5-((7-oxo-2,6-diazaspiro[3.4]octan-2-yl)methyl)-[2,4′-bipyridin]-2′-yl)phenyl)-1,3-dimethyl-2,4-dioxo-1,2,3,4-tetrahydropyrimidine-5-carboxamide] showed an EC50 of 420 nM.
Compound `COc1nc(-c2cncc(-c3cccc(NC(=O)c4cn(C)c(=O)n(C)c4=O)c3Cl)c2Cl)ccc1CN1CC2(CNC(=O)C2)C1` [Compound 722, N-(2-Chloro-3-(4′-chloro-6-methoxy-5-((7-oxo-2,6-diazaspiro[3.4]octan-2-yl)methyl)-[2,3′-bipyridin]-5′-yl)phenyl)-1,3-dimethyl-2,4-dioxo-1,2,3,4-tetrahydropyrimidine-5-carboxamide] has an EC50 of 818 nM.
In the case of `COc1nc(-c2cncc(-c3cccc(NC(=O)c4cn(C)c(=O)n(C)c4=O)c3Cl)c2Cl)ccc1CNC1CCN(C(C)=O)CC1` [Compound 723, N-(3-(5-(((1-Acetylpiperidin-4-yl)amino)methyl)-4′-chloro-6-methoxy-[2,3′-bipyridin]-5′-yl)-2-chlorophenyl)-1,3-dimethyl-2,4-dioxo-1,2,3,4-tetrahydropyrimidine-5-carboxamide], the EC50 is reported as 1850 nM.
Compound `COc1nc(-c2cncc(-c3cccc(NC(=O)c4cn(C)c(=O)n(C)c4=O)c3Cl)c2Cl)ccc1CNC[C@H](C)O` [Compound 729, (S)—N-(2-Chloro-3-(4′-chloro-5-(((2-hydroxypropyl)amino)methyl)-6-methoxy-[2,3′-bipyridin]-5′-yl)phenyl)-1,3-dimethyl-2,4-dioxo-1,2,3,4-tetrahydropyrimidine-5-carboxamide] has an EC50 of 652 nM.
For `COc1nc(-c2cncc(-c3cccc(NC(=O)c4cn(C)c(=O)n(C)c4=O)c3Cl)c2Cl)ccc1CN1CC2(C1)CN(C(C)=O)C2` [Compound 730, N-(3-(5-((6-Acetyl-2,6-diazaspiro[3.3]heptan-2-yl)methyl)-4′-chloro-6-methoxy-[2,3′-bipyridin]-5′-yl)-2-chlorophenyl)-1,3-dimethyl-2,4-dioxo-1,2,3,4-tetrahydropyrimidine-5-carboxamide], the EC50 was 1100 nM.
Work on `COc1nc(-c2cccc(-c3ccnc(-c4cc5c(=O)n(C)c(CN6CC(C)(O)C6)nn5c4)c3Cl)c2Cl)ccc1CN[C@H]1C[C@](C)(O)C1` [Example 232, 6-(3-Chloro-4-(2-chloro-3-(5-((((1r,3r)-3-hydroxy-3-methylcyclobutyl)amino)methyl)-6-methoxypyridin-2-yl)phenyl)pyridin-2-yl)-2-((3-hydroxy-3-methylazetidin-1-yl)methyl)-3-methylpyrrolo[2,1-f][1,2,4]triazin-4(3H)-one] yielded an EC50 of 102 nM.
In the case of `COc1nc(-c2cccc(-c3ccnc(-c4cc5c(=O)n(C)c(CN6CC(C)(O)C6)nn5c4)c3Cl)c2Cl)ccc1CNC(C)C` [Example 233, 6-(3-Chloro-4-(2-chloro-3-(5-((isopropylamino)methyl)-6-methoxypyridin-2-yl)phenyl)pyridin-2-yl)-2-((3-hydroxy-3-methylazetidin-1-yl)methyl)-3-methylpyrrolo[2,1-f][1,2,4]triazin-4(3H)-one], the EC50 is reported as ≥ 10000 nM.
`COc1nc(-c2cccc(-c3ccnc(-c4cc5c(=O)n(C)c(CN6CC(C)(O)C6)nn5c4)c3Cl)c2Cl)ccc1CN[C@H]1CC[C@H](O)CC1` [Example 234, 6-(3-Chloro-4-(2-chloro-3-(5-((((1r,4r)-4-hydroxycyclohexyl)amino)methyl)-6-methoxypyridin-2-yl)phenyl)pyridin-2-yl)-2-((3-hydroxy-3-methylazetidin-1-yl)methyl)-3-methylpyrrolo[2,1-f][1,2,4]triazin-4(3H)-one] was tested, and the EC50 was 143 nM.
`COc1nc(-c2cccc(-c3ccnc(-c4ccc5c(CNC[C@@H]6CCO6)nn(C)c5c4)c3Cl)c2Cl)ccc1CNC[C@@H]1CCC(=O)N1` [Example 235, (S)-5-((((6-(2-Chloro-3-(3-chloro-2-(1-methyl-3-(((((S)-oxetan-2-yl)methyl)amino)methyl)-1H-indazol-6-yl)pyridin-4-yl)phenyl)-2-methoxypyridin-3-yl)methyl)amino)methyl)pyrrolidin-2-one] gave an EC50 of 65.1 nM.
`COc1cc(-c2nccc(-c3cccc(-c4ccc5c(OC)c(CNC[C@@H]6CCC(=O)N6)cc(Cl)c5n4)c3Cl)c2Cl)cc(F)c1CNC[C@@H]1CCC(=O)N1` [Example 236, (S)-5-((((8-Chloro-2-(2-chloro-3-(3-chloro-2-(3-fluoro-5-methoxy-4-(((((S)-5-oxopyrrolidin-2-yl)methyl)amino)methyl)phenyl)pyridin-4-yl)phenyl)-5-methoxyquinolin-6-yl)methyl)amino)methyl)pyrrolidin-2-one] gave an EC50 of 53.9 nM.
